Reference: patent publication US20090105126A1 (priority 2007, published 2009)
Values joined by “and” are separate entries in the source; they are usually repeats but may differ in a detail not shown here. Equal values may be shown once. Read-outs that look alike come from different tables or passages of the source.

Tests used:
[1] = Fluorescence anisotropy of entrapped calcein; type: physicochemical; settings: calcein probe, excitation 495 nm, emission 520 nm; higher value = more viscous
Description: DPPC was added by ethanol injection to make 5 mg/ml liposome at 50° C. […] Fluorescence anisotropy was measured at an excitation wavelength of 495 nm and emission wavelength of 520 nm. Fluorescence anisotropy is an order parameter, which ranged from 0 to 0.4 in aqueous solution. The higher value indicates more viscous solution.

[2] = tested on: S. pneumoniae (ATCC 6303); settings: for Log CFU/Lung, animals n/N (second line of cell) / Log CFU/mL of Blood, animals n/N (second line of cell) / Log CFU/mL of Blood: Inhalation, BID x 3; for Log CFU/mL of Blood: animals surviving until Day 7; for mice in which S. pneumoniae in the lungs was not eradicated: mice surviving to day 7
Description: Sixty (60) Thirty six (36) female mice (Swiss Webster, Charles River) were received in the vivarium and acclimated for at least 7 days prior to initiation of the protocol. All mice were instilled via nasal insufflation with S. pneumoniae (ATCC, 6303, 4.1×10^4 CFU/ mice) after being anesthetized with Ketamine/Xylazine solution (80 mg/kg and 10 mg/kg). The instillation was performed through the nostrils route using micropipette with tips (Gilson, calibrated with Femt Scientific). The mouse is held by its ears and 20 μl of bacteria are gradually (2 μl per breath) released into the nostrils (10 μl in each nostril) with the help of a micro-pipette. The mice were observed every 10 min until they fully recovered from the anesthesia.
Mice were dosed on days 1, 2 and 3. There were 5 groups and each group had 12 mice. […] Mice in group 5 received sterile normal saline (0.9% NaCl) by inhalation.
Determination of bacterial colonies in the lung and blood of mice. Mice that were euthanized prior to day 7 and mice that survived to day 7 were euthanized by CO2 asphyxiation. The blood was collected by cardiac puncture after euthanization. A 1/10 dilution of blood was made in BHI broth immediately. The lungs were removed aseptically, weighed and placed into 1 ml of BHI broth in a sterile 5 ml Polypropylene round-bottom tube.
Lungs were homogenized sterilely with a Polytron^R (Brinkmann, Rexdale, Ontario, Canada) using the maximum speed in the 5 ml Polypropylene round-bottom tube. The tissues were homogenized until a smooth. Ten-fold dilutions of the lung homogenates were made in BHI broth supplemented with 10 ug/ml of Colistin(C) 5 ug/ml of Oxolinic (O). One hundred (100) ul of each dilution of lung homogenates were plated out onto CBO agar plates and spread. The plates were incubated for 24 hours at 37° C. then colonies were counted.

[3] = tested on: S. pneumoniae (ATCC 6303)
Description: Thirty six (36) female mice (Swiss Webster, Charles River) were received in the vivarium and acclimated for at least 7 days prior to initiation of the protocol. […] Mice were dosed on days 1, 2 and 3. […] Mice in Group 3 received 20 min inhalation with sterile 0.9% NaCl for inhalation (Cardinal, Lot #WBA194). Euthanization and determination of bacterial colonies in blood and lungs were performed as described in Example 8.

[4] = Concentration of vancomycin in the lungs of mice after inhalation therapy (Example 8); settings: for [VANCOMYCIN] in Lung, animals n/N (second line of cell): Inhalation, BID x 3; for Vancomycin (μg/g), mean / Vancomycin (μg/lung), mean / Vancomycin (μg/g), individual mice / Vancomycin (μg/lung), individual mice: 4 days after inhalation therapy; for Vancomycin (μg/g), mean / Vancomycin (μg/lung), mean: group mean; for Vancomycin (μg/g), individual mice / Vancomycin (μg/lung), individual mice: listed as Soluble Vancomycin
Description: The instillation was performed through the nostrils route using micropipette with tips (Gilson, calibrated with Femt Scientific). The mouse is held by its ears and 20 μl of bacteria are gradually (2 μl per breath) released into the nostrils (10 μl in each nostril) with the help of a micro-pipette. The mice were observed every 10 min until they fully recovered from the anesthesia.
There were 5 groups and each group had 12 mice. […] Mice in group 5 received sterile normal saline (0.9% NaCl) by inhalation.

[5] = Intraperitoneal, BID x 3, 12 mg/kg/day
[6] = Intraperitoneal, BID x 3, 12 mg/kg/day, animals surviving until Day 7
[7] = intraperitoneal injection 6 mg/kg BID

CN[C@H](CC(C)C)C(=O)N[C@H]1C(=O)N[C@@H](CC(N)=O)C(=O)N[C@H]2C(=O)N[C@H]3C(=O)N[C@H](C(=O)N[C@H](C(=O)O)c4cc(O)cc(O)c4-c4cc3ccc4O)[C@H](O)c3ccc(c(Cl)c3)Oc3cc2cc(c3O[C@@H]2O[C@H](CO)[C@@H](O)[C@H](O)[C@H]2O[C@H]2C[C@](C)(N)[C@H](O)[C@H](C)O2)Oc2ccc(cc2Cl)[C@H]1O [Vancomycin solution (15 mg/ml), vancomycin]
Fluorescence anisotropy [1]: 0.014

CN[C@H](CC(C)C)C(=O)N[C@H]1C(=O)N[C@@H](CC(N)=O)C(=O)N[C@H]2C(=O)N[C@H]3C(=O)N[C@H](C(=O)N[C@H](C(=O)O)c4cc(O)cc(O)c4-c4cc3ccc4O)[C@H](O)c3ccc(c(Cl)c3)Oc3cc2cc(c3O[C@@H]2O[C@H](CO)[C@@H](O)[C@H](O)[C@H]2O[C@H]2C[C@](C)(N)[C@H](O)[C@H](C)O2)Oc2ccc(cc2Cl)[C@H]1O [Vancomycin solution (300 mg/ml), vancomycin]
Fluorescence anisotropy [1]: 0.17

CN[C@H](CC(C)C)C(=O)N[C@H]1C(=O)N[C@@H](CC(N)=O)C(=O)N[C@H]2C(=O)N[C@H]3C(=O)N[C@H](C(=O)N[C@H](C(=O)O)c4cc(O)cc(O)c4-c4cc3ccc4O)[C@H](O)c3ccc(c(Cl)c3)Oc3cc2cc(c3O[C@@H]2O[C@H](CO)[C@@H](O)[C@H](O)[C@H]2O[C@H]2C[C@](C)(N)[C@H](O)[C@H](C)O2)Oc2ccc(cc2Cl)[C@H]1O [Vancomycin, vancomycin]
mice showing bacterial level in lungs ([2]; 3.8 mg/kg/day, 7 days, FIG. 8): > 90% | bacterial level in lungs ([2]; 6.0 mg/kg/day, 7 days, FIG. 8): still showed substantial bacterial level | Log CFU/Lung, animals n/N (second line of cell) ([2]; 3.8 mg/kg/day): 11/12 | Log CFU/mL of Blood, animals n/N (second line of cell) ([2]; 3.8 mg/kg/day): 0/12 | Log CFU/mL of Blood ([2]; 3.8 mg/kg/day): 0 Log CFU/mL | Log CFU/Lung, animals n/N (second line of cell) ([2]; 6.0 mg/kg/day): 12/12 | Log CFU/mL of Blood, animals n/N (second line of cell) ([2]; 6.0 mg/kg/day): 0/12 | Log CFU/mL of Blood ([2]; 6.0 mg/kg/day): 0 Log CFU/mL | Log10 CFU/lung, individual mice ([2]; inhalation 3.8 mg/kg for 3 days, day 7, 1 = limit of detection, no colonies detected): 1 Log10 CFU/lung and 2 Log10 CFU/lung | mice in which S. pneumoniae in the lungs was not eradicated ([2]; inhaled 3.8 mg/kg): 92% | bacteria in blood ([2]; inhaled 6 mg/kg and 3.8 mg/kg, day 7): no bacteria in their blood | mice in which S. pneumoniae in the lungs was not eradicated ([2]; inhaled 6 mg/kg): 100% | Survival ([2]; inhaled, 6 or 3.8 mg/kg/day on days 1, 2 and 3, 12 mice per group, FIG. 4): 100% | Log CFU/Lung, animals n/N (second line of cell) [3, 5]: 3/12 | Log CFU/mL of Blood, animals n/N (second line of cell) [3, 5]: 5/12 | Log CFU/Lung [3, 6]: 0.7 ± 1.3 Log CFU/Lung | Log CFU/mL of Blood [3, 6]: 1.7 ± 2.1 Log CFU/mL | mice in which S. pneumoniae in the lungs was not eradicated [3, 7]: 25% | mice in which S. pneumoniae was not eradicated from the blood [3, 7]: 42% | mice surviving to day 7 ([3]; intraperitoneal injection 6 mg/kg BID, days 1, 2 and 3, n=12): 100% | [VANCOMYCIN] in Lung, animals n/N (second line of cell) ([4]; 3.8 mg/kg/day): 12/12 | [VANCOMYCIN] in Lung, animals n/N (second line of cell) ([4]; 6.0 mg/kg/day): 12/12 | Vancomycin (μg/g), mean ([4]; inhaled 3.8 mg/kg): 34 µg/g | Vancomycin (μg/lung), mean ([4]; inhaled 3.8 mg/kg): 5 μg/lung | Vancomycin (μg/g), individual mice ([4]; inhaled 3.8 mg/kg): 14.0 µg/g and 37.0 µg/g | Vancomycin (μg/lung), individual mice ([4]; inhaled 3.8 mg/kg): 5.8 μg/lung and 5.2 μg/lung (2×) and 6.8 μg/lung and 3.4 μg/lung and 4.7 μg/lung (2×) and 5.9 μg/lung and 2.0 μg/lung and 3.6 μg/lung and 8.1 μg/lung and 6.1 μg/lung | Vancomycin (μg/g), mean ([4]; inhaled 6 mg/kg): 61 µg/g | Vancomycin (μg/lung), mean ([4]; inhaled 6 mg/kg): 10 μg/lung | Vancomycin (μg/g), individual mice ([4]; inhaled 6 mg/kg): 42.0 µg/g and 59.0 µg/g and 66.0 µg/g | Vancomycin (μg/lung), individual mice ([4]; inhaled 6 mg/kg): 7.6 μg/lung and 8.8 μg/lung and 6.4 μg/lung and 9.7 μg/lung and 9.0 μg/lung and 9.3 μg/lung and 8.3 μg/lung and 14.0 μg/lung and 9.8 μg/lung | vancomycin in the lungs (IP 12 mg/kg/day, day seven, listed as free vancomycin, 12 mg/kg/day): no vancomycin deposition in lung was detected | vancomycin in the lungs (IP injections, 4 days after the end of therapy): No detectable concentrations | initial daily lung dose (IP, based on 4% of the delivered dose in the lungs 30 min post IP injections): 15 ug of vancomycin/lung | [VANCOMYCIN] in Lung, animals n/N (second line of cell) [5]: 0/12 | [VANCOMYCIN] in Lung [6]: 0 mg/g | vancomycin after IP injection (Six (6) hours after IP injection, Swiss Webster mice): no detectable vancomycin was observed
